Measured values: US7888342B2, “Methods of treating fibromyalgia syndrome, chronic fatigue syndrome and pain” (Cypress Bioscience, Inc., priority 2001, dated 2011)

Columns and labels:
[1] = tested on: patient experiencing fatigue and fibromyalgia; settings: lofepramine 70 mg bd in combination with L-phenylalanine 500 mg bd; persisted for more than six months; cited from earlier work
NMDA receptor = settings: read-out: IC50, NMDA receptor antagonistic properties; cited from earlier work
[2] = tested on: patients with fibromyalgia syndrome (FMS); assay: Example 5: multicenter, double-blind, randomized, placebo-controlled monotherapy study of milnacipran for fibromyalgia; format: in vivo, human; settings: 3-months
Procedure: This was a multicenter, randomized, double-blind, placebo-controlled three-arm study designed which enrolled 1196 patients who meet the 1990 ACR criteria for fibromyalgia syndrome (history of widespread pain and pain in 11 of 18 tender point sites on digital palpation), as well as the more detailed admission criteria outlined in the protocol. […] All randomized medications (placebo and milnacipran) were administered twice a day (BID). (i) Primary Efficacy Assessments: Patient Global Impression of Change (PGIC) administered to patients at visits […] Tx15/ET; Physical Component summary of SF-36 (SF-36 PCS) administered to patients at visits BL2/Tx0, […]) Secondary Efficacy Assessments: Time weighted average (AUC) of weekly average PED morning recall pain score; PGIC and SF-36 PCS administered to patients at visits Tx3 to Tx15. (iii) Additional Efficacy Measurements: The Fibromyalgia Impact Questionnaire (FIQ) total score and physical function, Beck Depression Inventory (BDI), the MOS-Sleep Index Scale, the Arizona Sexual Experiences Scale (ASEX), Patient pain 24 hour and 7 day recall VAS, the SF-36 individual domains, Patient Global Disease Status, Patient Global Therapeutic Benefit, the Multiple Ability Self-report Questionnaire (MASQ, cognitive function), the Multidimensional Health Assessment Questionnaire (MDHAQ), Multidimensional Fatigue Inventory (MFI), and diary assessments including current pain (morning, random daily, and evening reports); overall pain past week (weekly report), overall fatigue in the last week (weekly report), and the extent that pain kept the patient from caring for themselves (weekly report). The primary efficacy assessment of this study was a composite responder status defined by three domains of interest evaluated at visit Tx15. The domains measured were The primary efficacy parameter for an indication in the treatment of pain of fibromyalgia was the composite responder status based on the morning recall pain as recorded in the PED and patient global as recorded on the PGIC at Visit Tx15. The primary efficacy parameter for an indication in the treatment of FMS was the composite responder status based on two domains of pain and patient global as used above in the primary efficacy parameter for the treatment of the pain of fibromyalgia plus the additional domain of physical function as measured by the SF-36 PCS at Visit Tx15. […] A patient was classified as a responder for the treatment of FMS if he or she satisfied the responder criteria for the treatment of pain of fibromyalgia and the following additional criterion (at visit Tx15): • Improvement on the SF-36 PCS score from baseline by an amount at least equivalent to the minimal clinically important difference, as defined in the Statistical Analysis Plan. Table 1 summarizes 3-month results for the Baseline Observation Carried Forward (BOCF), Last Observation Carried Forward (LOCF) and study completer (OC) populations. LOCF is an analysis in which observations are carried forward to the last time point for patients who dropped out. The LOCF analysis treats the carried-forward data as observed data at the last time point. BOCF is an analysis that requires that the patient remain active in the trial to be evaluated for response. If a patient withdrew from the trial for any reason, they were classified as a non-responder irregardless of their pain and global scores at the time of withdrawal.

SMILES: CN(CCCN1c2ccccc2CCc2ccccc21)CC(=O)c1ccc(Cl)cc1 [lofepramine]
- effect on fatigue and fibromyalgia [1]: considerable improvement in fatigue and fibromyalgia

SMILES: CCN(CC)C(=O)[C@]1(c2ccccc2)C[C@@H]1CN (racemic) [milnacipran, cis-(±)-2-(aminomethyl)-N,N-diethyl-1-phenyl-cyclopropanecarboxamide]
- IC50 (NMDA receptor): ~6.3 µM
- Composite Pain responder rate, difference from placebo ([2]; BOCF, 100 mg/day (399)): 6.35%
- Composite Pain responders, number ([2]; BOCF, 100 mg/day (399)): 91
- Composite Pain responders, percent ([2]; BOCF, 100 mg/day (399)): (22.81%)
- Composite Syndrome responder rate, difference from placebo ([2]; BOCF, 100 mg/day (399)): 5.81%
- Composite Syndrome responders, number ([2]; BOCF, 100 mg/day (399)): 58
- Composite Syndrome responders, percent ([2]; BOCF, 100 mg/day (399)): (14.54%)
- PGIC Component responder rate, difference from placebo ([2]; BOCF, 100 mg/day (399)): 8.39%
- PGIC Component responders, number ([2]; BOCF, 100 mg/day (399)): 125
- PGIC Component responders, percent ([2]; BOCF, 100 mg/day (399)): (31.33%)
- Pain Component responder rate, difference from placebo ([2]; BOCF, 100 mg/day (399)): 5.89%
- Pain Component responders, number ([2]; BOCF, 100 mg/day (399)): 124
- Pain Component responders, percent ([2]; BOCF, 100 mg/day (399)): (31.08%)
- SF36 PCS Component responder rate, difference from placebo ([2]; BOCF, 100 mg/day (399)): 5.62%
- SF36 PCS Component responders, number ([2]; BOCF, 100 mg/day (399)): 108
- SF36 PCS Component responders, percent ([2]; BOCF, 100 mg/day (399)): (27.07%)
- Composite Pain responder rate, difference from placebo ([2]; BOCF, 200 mg/day (396)): 8.29%
- Composite Pain responders, number ([2]; BOCF, 200 mg/day (396)): 98
- Composite Pain responders, percent ([2]; BOCF, 200 mg/day (396)): (24.75%)
- Composite Syndrome responder rate, difference from placebo ([2]; BOCF, 200 mg/day (396)): 5.16%
- Composite Syndrome responders, number ([2]; BOCF, 200 mg/day (396)): 55
- Composite Syndrome responders, percent ([2]; BOCF, 200 mg/day (396)): (13.89%)
- PGIC Component responder rate, difference from placebo ([2]; BOCF, 200 mg/day (396)): 9.64%
- PGIC Component responders, number ([2]; BOCF, 200 mg/day (396)): 129
- PGIC Component responders, percent ([2]; BOCF, 200 mg/day (396)): (32.58%)
- Pain Component responder rate, difference from placebo ([2]; BOCF, 200 mg/day (396)): 4.86%
- Pain Component responders, number ([2]; BOCF, 200 mg/day (396)): 119
- Pain Component responders, percent ([2]; BOCF, 200 mg/day (396)): (30.05%)
- SF36 PCS Component responder rate, difference from placebo ([2]; BOCF, 200 mg/day (396)): 1.02%
- SF36 PCS Component responders, number ([2]; BOCF, 200 mg/day (396)): 89
- SF36 PCS Component responders, percent ([2]; BOCF, 200 mg/day (396)): (22.47%)
- Composite Pain responder rate, difference from placebo ([2]; LOCF, 100 mg/day (399)): 7.61%
- Composite Pain responders, number ([2]; LOCF, 100 mg/day (399)): 103
- Composite Pain responders, percent ([2]; LOCF, 100 mg/day (399)): (25.81%)
- Composite Syndrome responder rate, difference from placebo ([2]; LOCF, 100 mg/day (399)): 6.56%
- Composite Syndrome responders, number ([2]; LOCF, 100 mg/day (399)): 65
- Composite Syndrome responders, percent ([2]; LOCF, 100 mg/day (399)): (16.29%)
- PGIC Component responder rate, difference from placebo ([2]; LOCF, 100 mg/day (399)): 9.65%
- PGIC Component responders, number ([2]; LOCF, 100 mg/day (399)): 138
- PGIC Component responders, percent ([2]; LOCF, 100 mg/day (399)): (34.59%)
- Pain Component responder rate, difference from placebo ([2]; LOCF, 100 mg/day (399)): 8.66%
- Pain Component responders, number ([2]; LOCF, 100 mg/day (399)): 149
- Pain Component responders, percent ([2]; LOCF, 100 mg/day (399)): (37.34%)
- SF36 PCS Component responder rate, difference from placebo ([2]; LOCF, 100 mg/day (399)): 6.89%
- SF36 PCS Component responders, number ([2]; LOCF, 100 mg/day (399)): 129
- SF36 PCS Component responders, percent ([2]; LOCF, 100 mg/day (399)): (32.33%)
- Composite Pain responder rate, difference from placebo ([2]; LOCF, 200 mg/day (396)): 11.35%
- Composite Pain responders, number ([2]; LOCF, 200 mg/day (396)): 117
- Composite Pain responders, percent ([2]; LOCF, 200 mg/day (396)): (29.55%)
- Composite Syndrome responder rate, difference from placebo ([2]; LOCF, 200 mg/day (396)): 6.68%
- Composite Syndrome responders, number ([2]; LOCF, 200 mg/day (396)): 65
- Composite Syndrome responders, percent ([2]; LOCF, 200 mg/day (396)): (16.41%)
- PGIC Component responder rate, difference from placebo ([2]; LOCF, 200 mg/day (396)): 13.19%
- PGIC Component responders, number ([2]; LOCF, 200 mg/day (396)): 151
- PGIC Component responders, percent ([2]; LOCF, 200 mg/day (396)): (38.13%)
- Pain Component responder rate, difference from placebo ([2]; LOCF, 200 mg/day (396)): 11.22%
- Pain Component responders, number ([2]; LOCF, 200 mg/day (396)): 158
- Pain Component responders, percent ([2]; LOCF, 200 mg/day (396)): (39.90%)
- SF36 PCS Component responder rate, difference from placebo ([2]; LOCF, 200 mg/day (396)): 2.09%
- SF36 PCS Component responders, number ([2]; LOCF, 200 mg/day (396)): 109
- SF36 PCS Component responders, percent ([2]; LOCF, 200 mg/day (396)): (27.53%)
- Composite Pain responder rate, difference from placebo ([2]; OC, 100 mg/day): 13.37%
- Composite Pain responders, percent ([2]; OC, 100 mg/day): (38.56%)
- Composite Pain, m/n = # of responders/# of patients included ([2]; OC, 100 mg/day): 91/236
- Composite Syndrome responder rate, difference from placebo ([2]; OC, 100 mg/day): 11.22%
- Composite Syndrome responders, percent ([2]; OC, 100 mg/day): (24.58%)
- Composite Syndrome, m/n = # of responders/# of patients included ([2]; OC, 100 mg/day): 58/236
- PGIC Component responder rate, difference from placebo ([2]; OC, 100 mg/day): 15.70%
- PGIC Component responders, percent ([2]; OC, 100 mg/day): (47.53%)
- PGIC Component, m/n = # of responders/# of patients included ([2]; OC, 100 mg/day): 125/263
- Pain Component responder rate, difference from placebo ([2]; OC, 100 mg/day): 13.92%
- Pain Component responders, percent ([2]; OC, 100 mg/day): (52.32%)
- Pain Component, m/n = # of responders/# of patients included ([2]; OC, 100 mg/day): 124/237
- SF36 PCS Component responder rate, difference from placebo ([2]; OC, 100 mg/day): 11.40%
- SF36 PCS Component responders, percent ([2]; OC, 100 mg/day): (41.06%)
- SF36 PCS Component, m/n = # of responders/# of patients included ([2]; OC, 100 mg/day): 108/263
- Composite Pain responder rate, difference from placebo ([2]; OC, 200 mg/day): 20.39%
- Composite Pain responders, percent ([2]; OC, 200 mg/day): (45.58%)
- Composite Pain, m/n = # of responders/# of patients included ([2]; OC, 200 mg/day): 98/215
- Composite Syndrome responder rate, difference from placebo ([2]; OC, 200 mg/day): 12.22%
- Composite Syndrome responders, percent ([2]; OC, 200 mg/day): (25.58%)
- Composite Syndrome, m/n = # of responders/# of patients included ([2]; OC, 200 mg/day): 55/215
- PGIC Component responder rate, difference from placebo ([2]; OC, 200 mg/day): 18.76%
- PGIC Component responders, percent ([2]; OC, 200 mg/day): (50.59%)
- PGIC Component, m/n = # of responders/# of patients included ([2]; OC, 200 mg/day): 129/255
- Pain Component responder rate, difference from placebo ([2]; OC, 200 mg/day): 16.44%
- Pain Component responders, percent ([2]; OC, 200 mg/day): (54.84%)
- Pain Component, m/n = # of responders/# of patients included ([2]; OC, 200 mg/day): 119/217
- SF36 PCS Component responder rate, difference from placebo ([2]; OC, 200 mg/day): 5.24%
- SF36 PCS Component responders, percent ([2]; OC, 200 mg/day): (34.90%)
- SF36 PCS Component, m/n = # of responders/# of patients included ([2]; OC, 200 mg/day): 89/255
